In one data set the target is N-WASP (Homo sapiens, UniProt O00401). Conditions: Peterson et al., 2004; cited from earlier work.
For another data set, the target named is T1, WASP (Homo sapiens, UniProt P42768).
T1 sequence (P42768 1-502): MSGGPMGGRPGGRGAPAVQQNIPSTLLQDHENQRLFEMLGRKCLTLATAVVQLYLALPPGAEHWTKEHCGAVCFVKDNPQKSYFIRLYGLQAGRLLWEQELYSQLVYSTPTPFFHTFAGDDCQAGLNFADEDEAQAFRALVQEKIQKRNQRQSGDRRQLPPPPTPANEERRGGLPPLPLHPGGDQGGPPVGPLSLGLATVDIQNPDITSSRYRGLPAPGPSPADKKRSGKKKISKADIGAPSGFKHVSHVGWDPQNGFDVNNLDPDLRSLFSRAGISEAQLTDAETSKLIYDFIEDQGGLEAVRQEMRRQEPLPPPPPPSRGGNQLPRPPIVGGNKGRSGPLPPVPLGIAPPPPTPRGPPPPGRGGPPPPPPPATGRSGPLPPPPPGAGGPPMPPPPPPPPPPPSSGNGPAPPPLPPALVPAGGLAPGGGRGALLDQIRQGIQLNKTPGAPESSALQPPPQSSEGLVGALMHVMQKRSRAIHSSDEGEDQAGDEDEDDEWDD
Conditions: cited from earlier work.

Data set [1] relates to intracellular levels of ATP. Conditions: non-specific effects; cited from earlier work.
A further data set concerns MTLn3. The experiment in a line: 3D collagen invasion assay of MTLn3 carcinoma cells (macrophage co-culture or BMM conditioned media). The conditions noted are these: KO CM with exogenously added 25 nM EGF (FIG. 2C). In kind it is cell-based. The text has this:
FIG. 1A-1D. WASP is required for macrophage-dependent breast carcinoma cell invasion. (A) Schematic illustration of the 3D invasion assay. (B) X-Z reconstruction of confocal images of 3D invasion assay using celltracker green labeled carcinoma cells (MTLn3) cultured on their own or co-cultured with celltracker red labeled primary bone marrow derived macrophages (BMM) isolated from either wild type (WT) or WASP knockout (WASP−/−) mice. Dotted line indicates the arbitrary threshold for measuring invasion at 20 μm (˜2 cell diameter). Quantification of cell tracker dye labeled (C) macrophage and (D) MTLn3 invasion. Fluorescence from cells was recorded at 5 μm step size. Collagen invasion is plotted as fraction of cells where fluorescence intensities above 20 μm are divided by total fluorescence from the entire stack (n=3 mice per genotype, age and sex matched). […]
FIG. 2A-2C. […] (A) Quantification of the MTLn3 invasion by MTLn3 cells alone, in response to wildtype BMM conditioned media (WT-CM) or conditioned media from WASP deficient mice (+KO CM) p<** 0.01 ***0.001 compared to wild-type macrophage conditioned media (WT CM). (B) Quantification of the MTLn3 invasion by MTLn3 cells alone, with wildtype BMM conditioned media (WT-CM) alone or with control IgG (Ctrl IgG) or with two different neutralizing anti-EGF antibodies generated in goat or rabbit (nEGF-G or nEGF-R). […]

In the next data set the test system is MTLn3 tumor. Kind of data set: in vivo needle invasion assay. Also on record: species or system mice. The conditions noted are these: needle with EGF vs buffer, 4 hours (FIG. 6). On the procedure:
FIG. 6A-6B. WASP is required for macrophage dependent carcinoma cell invasion in vivo. (A) Schematic illustration of in vivo invasion assay. (B) Quantification of the number of cells collected into the needle after 4 hours with EGF or without EGF (buffer) from wildtype, WASP+/− or WASP−/− mice bearing MTLn3 tumor. Cell counting was performed single blinded where the counter was not aware of the genotype of the mice. n=4 independent WT and 4 WASp−/− mice used) Error bars signify SEM. ** p<0.01 compared to buffer and EGF needle in WASP−/− mice.
The presence and absence of WASP in tumors was further characterized to determine the precise defect in the absence of WASP that led to reduced metastasis. […] Carcinoma cell invasiveness in the tumor was monitored and analyzed using a well established in vivo needle invasion assay that mimics the invasion of carcinoma cells into a blood vessel, according to Wyckoff et al. (Wyckoff, Segall et al. 2000). […] Additionally, a reduction was also observed in the motility of carcinoma cells in the tumors of WASP deficient mice as compared with control mice (FIG. 7).

Chain of N-WASP (O00401 whole entry, species assumed): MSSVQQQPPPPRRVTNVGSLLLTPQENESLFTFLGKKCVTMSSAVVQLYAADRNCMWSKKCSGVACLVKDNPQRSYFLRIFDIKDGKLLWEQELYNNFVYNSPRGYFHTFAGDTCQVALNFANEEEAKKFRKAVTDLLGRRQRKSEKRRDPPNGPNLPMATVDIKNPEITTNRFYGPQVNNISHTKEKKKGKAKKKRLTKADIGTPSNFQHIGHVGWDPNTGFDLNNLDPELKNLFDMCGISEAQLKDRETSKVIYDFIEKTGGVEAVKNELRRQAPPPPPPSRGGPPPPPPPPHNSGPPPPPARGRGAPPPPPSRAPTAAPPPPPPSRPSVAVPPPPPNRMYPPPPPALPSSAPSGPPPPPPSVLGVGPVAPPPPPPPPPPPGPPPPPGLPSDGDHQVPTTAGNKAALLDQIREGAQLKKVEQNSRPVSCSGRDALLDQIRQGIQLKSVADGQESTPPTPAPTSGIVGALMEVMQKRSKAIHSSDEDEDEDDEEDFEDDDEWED

With `CN(C)C[C@H](O)Cn1c2ccc(Br)cc2c2cc(Br)ccc21` (racemic) [wiskostatin], the “inhibition of N-WASP” value at N-WASP is reported as “inhibitor of N-WASP”. On WASP, the “inhibition of WASP” value is “also inhibits WASP”. Also, in data set [1], the “intracellular levels of ATP” value was “lowers the intracellular levels of ATP”.

On to “EGF: epidermal growth factor, carcinoma cell chemoattractant (NSDSECPLSHDGYCLHDGVCMYIEALDKYACNCVVGYIGERCQYRDLKWWELR; UniProt P01133 971-1023, looked up)”, for which the “MTLn3 invasion with WASP deficient BMM conditioned media” value in the data set on MTLn3 was “restored carcinoma cell invasion”. For the same compound, the “number of carcinoma cells collected into needle” value is “no difference in the number of cells collected” with MTLn3 tumor (tumor bearing WASP-deficient mice) and “significantly enhanced the number of carcinoma cells collected into a needle” with MTLn3 tumor (tumor bearing control mice).

The values are drawn from patent US20120077734A1, “Methods and assays for treating conditions in which macrophages play a pathogenic role” (priority 2010, published 2012).
